Test results from patent US12496298B2, “Natural killer cells” (Imperial College Innovations Limited, priority 2017, dated 2025).

System: mouse NK cell (NK1.1+CD3−) production from HPCs
Test: In vitro development of NK cells from mouse HPCs (NK cell development assay, flow cytometry at Day 9)
Assay type: cell-based
Excerpt: FIG. 2: Timeline of NK cell development assay. HPCs were isolated and cultured plus FIt3L, IL-7 and SCF cytokines. At Day 2, they were then transferred onto OP9 stromal cells plus or minus drug in culture medium plus the IL-15 cytokine. The media of the cultures were changed at Day 5 and the cells were harvested and analysed at Day 9.
Lineage negative cells are enriched for Hematopoietic Progenitor Cells (HPCs). […] Cells were harvested on Day 9 and analysed using flow cytometry to determine the number of NK1.1^+CD3^− cells (FIG. 2). NK1.1^+ and CD3^− are two cell surface markers that can define mouse NK cells. OP9 stromal cells were readily excluded from the analysis, as the OP9 stromal cells used were GFP positive (FIG. 3B). Flow cytometry data were analysed as the fold increase, relative to the ‘No drug’ or untreated control in each experiment. This is because the absolute percentage of NK cell production varies between experiments.
Lineage negative HSCs were purified from mouse bone marrow by crushing the leg bones in Phosphate-buffered Saline (PBS) with 2% fetal calf serum (FCS) (STEMCELL Technologies), topped up to 40 ml with magnetic-activated cell sorting (MACS) buffer (PBS, 2 mM EDTA, 0.5% BSA, sterile and filtered) and centrifuged at 800 g for 2 minutes. The cells were resuspended in PE-conjugated cocktail, (20 μl of anti-B220 (RA3-6B2), anti-mouse CD2 (RM2-5, anti-Ter119 (TER119) and anti-NK.1.1 (PK136) and 5 μl of anti-CD11b (M1/70) and anti-GR-1 (RB6-8C5) antibodies (all from Bioscience)) incubated for 5 minutes at 4° C., centrifuged and resuspended in anti-PE microbeads for 15 minutes at 4° C. Cells were washed in MACS buffer and passed through MACS columns. This allowed negative selection of HPCs. Following lineage depletion, 50 μl of the cells was analysed using flow cytometry to check for purity.
The HPCs were plated and cultured in 24-well plates at a concentration of 5×10^5 HPCs/well in 1 ml of complete cytokine medium (Dulbecco's modified eagle medium (DMEM) (Sigma Aldrich), 10% FCS, 50 μM β-Mercaptoethanol, 10 ng/ml Flt3-ligand (FIt3L) (R&D Systems), 10 ng/ml IL-7 (R&D Systems), 100 ng/ml stem cell factor (SCF) (R&D Systems) and 1% P/S) for 2 days at 37° C., 5% CO2. The HPCs were then transferred onto OP9 cells at 4500 cells/well for 96-well plate experiments and 3×10^4 cells/well for 24-well plate experiments in mouse NK cells differentiation medium (Alpha-MEM (Sigma Aldrich) plus 20% FCS, 1% P/S and 30 ng/ml IL-15). Cells were left in culture at 37° C., 5% CO2 for 7 days with a change of mouse NK cells differentiation medium at day 3 or 4.
Cells to be analysed by flow cytometry were passed through 40 μm cell strainers to remove clumps and washed with PBS buffer, centrifuged at 800 g for 2 minutes and resuspended in 100 μl fluorescent activated cell sorting (FACS) buffer (PBS plus 1% BSA) with appropriate fluorochrome conjugated antibodies at a dilution of 1 in 300. Cells were stained with the following antibodies, all of which were anti-mouse and are from eBioscience unless specified: 2B4 (clone m2B4(B6) 458.1; BioLegend), CD2 (RM2-5), CD3 (17A2), CD11b (M1/70), CD19 (1D3), CD27 (LG.7F9), CD122 (TM-b1), CD127 (A7R34), B220 (RA3-6B2), ckit (ACK2), Flt3 (A2F10), Gr1 (RB6-8C5), NK1.1 (PK136), Sca1 (D7), Ter119 (TER119), NKp46 (29A1.4) anti-human CD45 (HI30), anti-human CD2 (RPA-2.10) and anti-human CD56 (CMSSB). The lineage cocktail contained B220, CD2, CD11b, Gr1, NK1.1, and Ter119. Cells were stained in the dark at 4° C. for 30 minutes and then washed with 2 ml FACS buffer, centrifuged and resuspend in 300 μl FACS buffer plus Propidium Iodide (PI) also at a dilution of 1 in 300. Flow cytometry was performed using LSRFortessa™ cell analyser (Becton Dickinson Bioscience), sorted using FACSAria (Becton Dickinson) as indicated and full data analysis was done using FlowJo Software.

For NC(=O)c1ccc(-c2nc(-c3ccc4c(c3)OCCO4)c(-c3ccccn3)[nH]2)cc1 [D4476], the “NK cell production compared to 'No drug' control” value (20 μM added Day 2, analysed Day 9, screen (FIG. 3)) was “significant increase”.
In the case of N#Cc1ccc(-c2csc(NN=C3CCCC3)n2)cc1 [Remodelin], the “NK cell production compared to 'No drug' control” value (5 μM added Day 2, analysed Day 9, screen (FIG. 3)) was “significant increase”.
For CC(C)(C)OC(=O)CN(Cc1ccc(Cl)cc1)Cc1ccc([N+](=O)[O-])s1 [GSK4112], the “NK cell production reduced” value (GSK4112 tested at 2, 5, 10 and 20 μM (FIG. 6), concentration not given) was roughly 50% and the “effect on NK cell production” value (summary in Discussion) was “decreasing NK cell production”.
